For six compounds, Time results are on record in ChEMBL document CHEMBL3244121, “Esters of 4-[3-[2-(trifluoromethyl)phenothiazin-10-yl]propyl]-1-piperazieneethanol and related compounds as long-acting antipsychotic agents. Synthesis of the 1-adamantoate, the first crystalline base” (1977).

In the assay the test system is Rattus norvegicus. Put plainly: Antipsychotic activity in albino rat assessed as duration of inhibition of conditioned avoidance behavior at 25 mg/kg administered intramuscularly. Type of assay: functional. To be noted: route intramuscular.
On to `CCCCCC(=O)OCCN1CCN(CCCN2c3ccccc3Sc3ccc(C(F)(F)F)cc32)CC1.Cl`, for which the Time stood at 8 days.

Regarding `CC(C)CCC(=O)OCCN1CCN(CCCN2c3ccccc3Sc3ccc(C(F)(F)F)cc32)CC1.Cl`, the Time is 8 days.

As for `CCCCCCCCCCCC(=O)OCCN1CCN(CCCN2c3ccccc3Sc3ccc(C(F)(F)F)cc32)CC1.Cl`, the Time was 28 days.

Turning to `CCCCCCCCCCCCCC(=O)OCCN1CCN(CCCN2c3ccccc3Sc3ccc(C(F)(F)F)cc32)CC1.Cl`, the Time is 28 days.

Consider `CCCCCCCCCC(=O)OCCN1CCN(CCCN2c3ccccc3Sc3ccc(C(F)(F)F)cc32)CC1` [FLUPHENAZINE DECANOATE], for which the Time amounted to 12 days.

`CCCCCCC(=O)OCCN1CCN(CCCN2c3ccccc3Sc3ccc(C(F)(F)F)cc32)CC1` [FLUPHENAZINE ENANTHATE]: the Time was 28 days.
